Results from the supplement of paper PMC13380429.
± gives the standard deviation of the averaged measurements.

What was measured:
Conditions in all cases: 72 h
Caco-2 [1] = assay: drug sensitivity score (DSS) for viability; higher = more toxic; extreme values may be limits of the assay
HepG2 [2] = assay: as above
Calu-3 [3] = assay: as above
U2OS [4] = assay: as above
Vero E6 [5] = assay: as above
Caco-2 [6] = assay: cell viability relative to DMSO; higher = less toxic
HepG2 [7] = assay: as above
Calu-3 [8] = assay: as above
U2OS [9] = assay: as above
Vero E6 [10] = assay: as above
Caco-2 [11] = assay: relative viability EC50 (midpoint between 100% and the lowest measured viability); higher = less toxic
HepG2 [12] = assay: as above
Calu-3 [13] = assay: as above
U2OS [14] = assay: as above
Vero E6 [15] = assay: as above

Compound	drug sensitivity score (Caco-2 [1])	drug sensitivity score (HepG2 [2])	drug sensitivity score (Calu-3 [3])	drug sensitivity score (U2OS [4])	drug sensitivity score (Vero E6 [5])	cell viability (Caco-2 [6]; 1 nM) [%]	cell viability (Caco-2 [6]; 10 nM) [%]	cell viability (Caco-2 [6]; 100 nM) [%]	cell viability (Caco-2 [6]; 1000 nM) [%]	cell viability (Caco-2 [6]; 10000 nM) [%]	cell viability (HepG2 [7]; 1 nM) [%]	cell viability (HepG2 [7]; 10 nM) [%]	cell viability (HepG2 [7]; 100 nM) [%]	cell viability (HepG2 [7]; 1000 nM) [%]	cell viability (HepG2 [7]; 10000 nM) [%]	cell viability (Calu-3 [8]; 1 nM) [%]	cell viability (Calu-3 [8]; 10 nM) [%]	cell viability (Calu-3 [8]; 100 nM) [%]	cell viability (Calu-3 [8]; 1000 nM) [%]	cell viability (Calu-3 [8]; 10000 nM) [%]	cell viability (U2OS [9]; 1 nM) [%]	cell viability (U2OS [9]; 10 nM) [%]	cell viability (U2OS [9]; 100 nM) [%]	cell viability (U2OS [9]; 1000 nM) [%]	cell viability (U2OS [9]; 10000 nM) [%]	cell viability (Vero E6 [10]; 1 nM) [%]	cell viability (Vero E6 [10]; 10 nM) [%]	cell viability (Vero E6 [10]; 100 nM) [%]	cell viability (Vero E6 [10]; 1000 nM) [%]	cell viability (Vero E6 [10]; 10000 nM) [%]	relative viability EC50 (Caco-2 [11]) [µM]	relative viability EC50 (HepG2 [12]) [µM]	relative viability EC50 (Calu-3 [13]) [µM]	relative viability EC50 (U2OS [14]) [µM]	relative viability EC50 (Vero E6 [15]) [µM]
COC(=O)C1=C(C)NC(C)=C([N+](=O)[O-])[C@@H]1c1ccccc1C(F)(F)F (racemic) [BAY-K-8644-(+/-)]	0	0	0	0	0	89.8 ± 1.6	94.5 ± 2.3	94.3 ± 1.8	106 ± 4.2	93.4 ± 3.4	99.8 ± 1.3	93.6 ± 3.2	95.2 ± 1.8	104 ± 10	94.25 ± 0.21	101 ± 8.4	99.4 ± 2.1	99.9 ± 7.6	100 ± 6.7	98.5 ± 3.2	95.9 ± 0.28	95.9 ± 4.4	98.8 ± 4.9	97.9 ± 4.7	96.2 ± 0.85	95 ± 1.1	97.9 ± 1.4	99.4 ± 4.5	100 ± 2	101 ± 5.7	> 10	> 10	> 10	> 10	> 10
CCOC(=O)C1=C(C)NC(C)=C(C(=O)OC)[C@@H]1c1cccc([N+](=O)[O-])c1 (racemic) [nitrendipine]	0	0	0	0	0	81.3	92.4	96.2	90.2	82.9	108	102	89	104	92.7	89.5	92.3	105	86.5	87.1	98.5	96.9	98.7	95.4	95.6	102	106	98.5	105	103	> 10	> 10	> 10	> 10	> 10
N#Cc1ncccn1 [2-cyanopyrimidine]	0	0	0	0	0	98.5	93.7	101	99.3	102	102	100	93.7	93.6	111	102	99.3	101	91.6	96.9	100	104	96.7	99.6	97.9	93.8	104	97	106	94.6	> 10	> 10	> 10	> 10	> 10
C=CCN1CCN(c2nc3ccccc3nc2C#N)CC1 [3-AQC]	0	0	0	0	0	102	99.9	103	101	95.2	94	104	96.6	97.5	94.2	94.7	98	101	103	98.1	100	101	101	97.9	97.1	94.9	102	92.6	104	108	> 10	> 10	> 10	> 10	> 10
Cc1ccc(C[N+](C)(C)C)o1 [5-methylfurmethiodide]	0	0	0	0	0	99.1	105	103	96.3	108	104	108	93.8	103	90.2	108	103	93.9	100	101	101	99.7	102	98.7	103	104	103	97.5	107	99.9	> 10	> 10	> 10	> 10	> 10
[N-]=[N+]=CC(=O)CC[C@H](N)C(=O)O [6-diazo-5-oxo-L-norleucine]	0	0	0	0	0	95.4	90	97.8	95.8	92.7	97	105	98.8	97.2	112	102	90.6	96.4	95.2	98.1	104	102	104	98.3	104	94.2	95.8	86.8	95.6	103	> 10	> 10	> 10	> 10	> 10
Cc1noc(-c2ccc(-c3ccc(CC(=O)O)cc3)cc2)c1NC(=O)O[C@H](C)c1ccccc1 [AM095]	0	0	0	0	3.9	91.2	97.4	93.3	95.2	94.9	87.3	104	99.8	101	91.6	114	95.7	95.7	98.3	102	94.9	95.3	99	93	97.5	95	98	91.4	81.3	64.2	> 10	> 10	> 10	> 10	
N[C@H]1CC[C@H](N[C@@H]2C[C@H]2c2ccccc2)CC1 [ORY-1001]	0		0	0	0	93.7	99.5	93.2	100	100						93.2	105	94.1	99.3	95.3	96.3	98.7	97.4	101	98.4	97.7	103	99	96.3	103	> 10		> 10	> 10	> 10
O=C(Nc1ccccc1)[C@]12C[C@H]1/C(=N\O)c1ccccc1O2 [PHCCC]	0		0	0	0	104	99	93.4	107	94.5						102	102	90.9	96.4	93	97.4	99.9	95.9	101	104	107	91.5	102	92.8	103	> 10		> 10	> 10	> 10
COCC[n+]1c2c(n(Cc3cnccn3)c1C)C(=O)c1ccccc1C2=O [YM-155]	40.1	27	39	37.2	4	81.5	27.8	3.8	1.7	1.7	103	102	21	3	0.4	83.9	34.4	3	0.5	0.4	100	44.3	1.5	-0.2	-0.1	90.7	97.4	87.5	85.2	52	0.0039	0.0587	0.0051	0.0091	
CC(=O)Nc1ccccc1 [acetanilide]	0		0	0	0	98.1	101	94.5	107	94.4						95	94.6	103	98.2	99.8	105	99	103	99.1	98.9	109	93.7	102	103	104	> 10		> 10	> 10	> 10
Cc1ccc2nc(N)[nH]c(=O)c2c1Sc1ccncc1 [nolatrexed]	0.4	1.1	0	0	0.5	98.2	98.7	101	104	80.3	107	99.5	97.1	101	71.6	97.9	93.4	85.8	96.9	99.1	94.3	99.3	92.4	101	94.3	103	97.2	99.8	98.9	83.1	> 10		> 10	> 10	> 10
CCCC[C@H]1C(=O)N(c2ccccc2)N(c2ccc(O)cc2)C1=O [oxyphenbutazone]	3.8	6	0	5.6	2.5	99.6	89.2	96.7	94.9	44.2	103	102	105	94.2	7.9	91.2	104	103	110	97.6	101	95.8	100	96	9.3	105	107	109	101	50.3	2.41	2.66	> 10	2.83	
C[n+]1ccccc1C=NO [pralidoxime]	0	0	0	0		103	94.5	105	99.8	95	106	115	102	101	89.7	96.6	93.1	93.8	91.3	110	100	97.4	103	98.4	103						> 10	> 10	> 10	> 10	
Cc1cncc(CN2CCC(=C3c4ccc(Cl)cc4CCc4cccnc43)CC2)c1 [rupatadine]	0.7	1.9	0	0	0	98.3	102	93.8	90.2	88.3	112	100	99.2	95.5	71.9	105	97.1	99.9	109	113	101	91.9	99.5	95.6	90.3	99	102	96.8	100	102	> 10		> 10	> 10	> 10
CCCCOC(=O)c1ccccc1Nc1cccc(C(F)(F)F)c1 [ufenamate]	0		0	0	0	96.2	102	94.4	93.7	98.1						105	87.3	91.8	93.7	94.7	91.7	98.7	92.4	100	108	110	104	106	106	98.5	> 10		> 10	> 10	> 10
